Test results from patent US20050192279A1, “Pyridazinones as antagonists of alpha4 integrins” (priority 2004, published 2005).

Legend:
DSS induced colitis = experiment: Dextran Sulfate Sodium (DSS) Induced Colitis; format: in vivo, Balb/c female mice and C57Black/6 mice
Excerpt: In Vivo Model for Colitis: Dextran Sulfate Sodium (DSS) Induced Colitis Inflammatory bowel diseases such as ulcerative colitis and Crohn's disease are characterized by diminished intestinal barrier function, apparent inflammatory damage that may include erosive loss of intestinal mucosa, and inflammatory infiltrates in the mucosa and submucosa. […] Among the many possible chemicals used are dextran sulfate sodium (DSS) and trinitrobenzene sulfonic acid (TNBS). The dextran sulfate sodium model of experimental colitis is characterized by a shrinkage of the colon's length, macrosopic inflammatory damage, diarrhea, a discontinuous pattern of mucosal epithelial damage in the distal colon with infiltration of inflammatory cells that include macrophages and neutrophils into the mucosa and submucosa (Blumberg, R. S., Saubermann, L. J., and Strober, W. Animal models of mucosal inflammation and their relation to human inflammatory bowel disease. Current Opinion in Immunology, 11: 648-656, 1999; […]., and Nakaya, R. A novel method of induction of reliable experimental acute and chronic colitis in mice. […] Cooper, […]., and […]. Clinicopathologic study of dextran sulfate sodium experimental murine colitis. Lab Invest., 69: 238-249, 1993; […]., Bajaj-Elliott, M., MacDonald, […]., and Buchler, M. W. Characterization of acute murine dextran sodium sulphate colitis: Cytokine profile and dose dependency. Digestion, 62: 240-248, 2000; […]., Husband, A. J., and Doe, W. F. The inflammatory infiltrate in the acute stage of the dextran sulphate sodium induced colitis: B cell response differs depending on the percentage of DSS used to induce it. BMC Clinical Pathology, 1: 3-13, 2001; and Diaz-Granados, Howe, K., Lu, J, and […]. Dextran sulfate sodium-induced colonic histopathology, but not altered epithelial ion transport, is reduced by inhibition of phosphodiesterase activity. Amer. J. Pathology, 156: 2169-2177, 2000). Balb/c female mice and […]/6 mice were used in these studies. […] When […]/6 mice were used, a solution of tap water containing 4% DSS was used. During the ensuing 7-day period, test animals were administered a preparation of an experimental compound. This material may be administered orally or intraperitoneally or subcutaneously, once or twice daily. At the end of this period, the animals were euthanized and their colons were collected for further analysis. Among the parameters analyzed were the length of the colon starting from the anus to the top of the cecum, the consistency of any stools found within the colon, and the gross macroscopic appearance of the colon. The distal colon between the 1st and the 4th centimeter was removed and placed in 10% neutral buffered formalin for later histological analysis. For the following parameters, colon length, stool consistency and appearance, and macroscopic damage a scoring system is used to describe the changes. […] Thus, […] Histological analyses of tissues consisted of staining paraffin-embedded tissue sections with hematoxylin-eosin dye. Epithelial damage scores were determined as the fraction of the tissue section showing damaged epithelium. […] Statistical analysis performed in Graphpad Prism 4.0 using ANOVA with Dunnet's or Bonferroni's multiple comparison's test.

TNBS induced colitis = experiment: Trinitrobenzenesulfonic acid (TNBS) Induced Colitis, mice; format: in vivo, Balb/c female mice; settings: mouse
Excerpt: In Vivo Model: Trinitrobenzenesulfonic acid (TNBS) Induced Colitis
The TNBS model of experimental colitis (Bobin-Dubigeon, C., Collin, X., Grimaud, N., Robert, J-M., Guillaume Le Baut, G., and Petit, J-Y. Effects of tumour necrosis factor-a synthesis inhibitors on rat trinitrobenzene sulphonic acid-induced chronic colitis. Eur. J. Pharmacology, 431: 103-110, 2001), is characterized by shrinkage of the colon, intraperitoneal serosal adhesions, severe wounding and inflammatory damage, diarrhea, a continuous pattern of mucosal epithelial damage in the distal colon with infiltration of inflammatory cells. These symptomatic signs in the above—mentioned models are similar to what occur in human colitis.
Male Wistar rats (200-250 g) are inoculated with 500 microliters of a solution of 10 to 20 mg of TNBS in 30% ethanol delivered intracolonically via catheter or ball-tipped gavage needle to the 8th cm from the anus. When Balb/c female mice (8-12 weeks of age) were used, the inoculation volume was 50 microliters containing 2-3 mg of TNBS in 30% ethanol delivered intracolonically via catheter or ball-tipped gavage needle to the 4th cm from the anus. During the ensuing 7 days, test animals were administered a preparation of an experimental compound. This material may be administered orally, subcutaenously or intraperitoneally, once or twice daily. […] Among the parameters analyzed were the length of the colon starting from the anus to the top of the cecum, the weight of the colon, the consistency of any stools found within the colon, the presence or absence of intraperitoneal adhesions on the serosal surfacr of the intestin, and the gross macroscopic appearance of the colon. The latter is scored for length and severity of inlfammatory damage using a 10 point score. […]
Histological analyses of tissues consisted of staining paraffin-embedded tissue sections with hematoxylin-eosin dye. Epithelial damage scores were determined as the fraction of the tissue section showing damaged epithelium. Scores were determined as follows: 0=no damage; 1=<⅓ damaged, 2=⅓ to <⅔ damaged, 3=>⅔ damaged. […]

[1] = 10 mg/kg sc bid, C57 Black/6 mice
[2] = 30 mg/kg sc bid, C57 Black/6 mice

SMILES: COc1cnn(C)c(=O)c1-c1ccc(C[C@H](NC(=O)c2c(Cl)cccc2Cl)C(=O)O)cc1 [Cpd 17]
- % Inhibition of Epithelial Damage Score (DSS induced colitis; 3 mg/kg sc bid, balb/c mice): 61.11%
- % Inhibition of Total Macroscopic Score (DSS induced colitis; 3 mg/kg sc bid, balb/c mice): 32.95%
- % Inhibition of Epithelial Damage Score (DSS induced colitis; [1]): 33.3%
- % Inhibition of Total Macroscopic Score (DSS induced colitis; [1]): −7.2%
- % Inhibition of Epithelial Damage Score (DSS induced colitis; 10 mg/kg sc bid, balb/c mice): 56.3%
- % Inhibition of Total Macroscopic Score (DSS induced colitis; 10 mg/kg sc bid, balb/c mice): 30.6%
- % Inhibition of Epithelial Damage Score (DSS induced colitis; [2]): 50%
- % Inhibition of Total Macroscopic Score (DSS induced colitis; [2]): 11.2%
- % Inhibition of Epithelial Damage Score (DSS induced colitis; 30 mg/kg sc bid, balb/c mice): 78.1%
- % Inhibition of Total Macroscopic Score (DSS induced colitis; 30 mg/kg sc bid, balb/c mice): −32.8%
- % Inhibition of Total Macroscopic Score (TNBS induced colitis; 10 mg/kg sc bid): 21.30%
- % Inhibition of Total Macroscopic Score (TNBS induced colitis; 30 mg/kg sc bid): 25.5%
- % Inhibition of Total Macroscopic Score (TNBS induced colitis; 60 mg/kg sc bid): −17%
